Measured values reported in patent publication US20050197350A1, “Novel quinoline, tetrahydroquinazoline, and pyrimidine derivatives and methods of treatment related to the use thereof” (TAISHO PHARMACEUTICAL CO., LTD., priority 2003, published 2005).

The compounds below were run on MCH receptors (assay: MCH receptor activity class (method not given)). Settings: MCH receptor activity class 1-3 (percent of control at 10^-7 M or IC50).

For `CN(C)c1ccnc(N[C@H]2CC[C@@H](CNC(=O)Nc3ccc(F)cc3)CC2)n1` [compound 2410, N-[(cis-4-{[4-(dimethylamino)pyrimidin-2-yl]amino}cyclohexyl)methyl]-N′-(4-fluorophenyl)urea], which class is on record?
The class was 2 (Class 2: The value of percent of control at 10^−7 M was from 40% to 60% or the value of IC′50 was from 50 nM to 200 nM.).

With `CSc1ccc(NC(=O)NC[C@H]2CC[C@@H](Nc3nccc(N(C)C)n3)CC2)cc1` [compound 2411] as the compound, how does the class read?
The class was 3 (Class 3 The value of percent of control at 10^−7 M was more than 60% or the value of IC50 was more than 200 nM.).

For `CN(C)c1ccnc(N[C@H]2CC[C@@H](CNC(=O)Nc3ccccc3C(F)(F)F)CC2)n1` [compound 2412], which class is on record?
The class was 3 (Class 3 The value of percent of control at 10^−7 M was more than 60% or the value of IC50 was more than 200 nM.).

Which class does the source give for `Cc1cc(C)c(NC(=O)NC[C@H]2CC[C@@H](Nc3nccc(N(C)C)n3)CC2)c(C)c1` [compound 2413, N-[(cis-4-{[4-(dimethylamino)pyrimidin-2-yl]amino}cyclohexyl)methyl]-N′-mesitylurea] here?
The class was 1 (Class 1: The value of percent of control at 10^−7 M was less than 40% or the value of IC50 was less than 50 nM.).

Which class does the source give for `Cc1ccccc1NC(=O)NC[C@H]1CC[C@@H](Nc2nccc(N(C)C)n2)CC1` [compound 2414] here?
The class was 3 (Class 3 The value of percent of control at 10^−7 M was more than 60% or the value of IC50 was more than 200 nM.).

With `CN(C)c1ccnc(N[C@H]2CC[C@@H](CNC(=O)Nc3c(Cl)cc(Cl)cc3Cl)CC2)n1` [compound 2415, N-[(cis-4-{[4-(dimethylamino)pyrimidin-2-yl]amino}cyclohexyl)methyl]-N′-(2,4,6-trichlorophenyl)urea] as the compound, how does the class read?
Its class is 1 (Class 1: The value of percent of control at 10^−7 M was less than 40% or the value of IC50 was less than 50 nM.).

How did the class turn out when `CN(C)c1ccnc(N[C@H]2CC[C@@H](CNC(=O)Nc3c(F)cc(Br)cc3Br)CC2)n1` [compound 2417] was run?
The class was 1 (Class 1: The value of percent of control at 10^−7 M was less than 40% or the value of IC50 was less than 50 nM.).

With `CCc1cccc(CC)c1NC(=O)NC[C@H]1CC[C@@H](Nc2nccc(N(C)C)n2)CC1` [compound 2418, N-(2,6-diethylphenyl)-N′-[(cis-4-{[4-(dimethylamino)pyrimidin-2-yl]amino}cyclohexyl)methyl]urea] as the compound, how does the class read?
The class was 1 (Class 1: The value of percent of control at 10^−7 M was less than 40% or the value of IC50 was less than 50 nM.).

Which class does the source give for `CN(C)c1ccnc(N[C@H]2CC[C@@H](CNC(=O)Nc3c(Cl)cccc3C(F)(F)F)CC2)n1` [compound 2419] here?
Its class is 1 (Class 1: The value of percent of control at 10^−7 M was less than 40% or the value of IC50 was less than 50 nM.).

Which class does the source give for `Cc1cccc(Cl)c1NC(=O)NC[C@H]1CC[C@@H](Nc2nccc(N(C)C)n2)CC1` [compound 2420, N-(2-chloro-6-methylphenyl)-N′-[(cis-4-{[4-(dimethylamino)pyrimidin-2-yl]amino}cyclohexyl)methyl]urea] here?
The class was 1 (Class 1: The value of percent of control at 10^−7 M was less than 40% or the value of IC50 was less than 50 nM.).

For `CN(C)c1ccnc(N[C@H]2CC[C@@H](CNC(=O)NCc3ccccc3Cl)CC2)n1` [compound 2421], which class is on record?
The class was 3 (Class 3 The value of percent of control at 10^−7 M was more than 60% or the value of IC50 was more than 200 nM.).

With `CCc1ccccc1NC(=O)NC[C@H]1CC[C@@H](Nc2nccc(N(C)C)n2)CC1` [compound 2423] as the compound, how does the class read?
Its class is 3 (Class 3 The value of percent of control at 10^−7 M was more than 60% or the value of IC50 was more than 200 nM.).

How did the class turn out when `CN(C)c1ccnc(N[C@H]2CC[C@@H](CNC(=O)Nc3ccccc3I)CC2)n1` [compound 2424] was run?
The class was 3 (Class 3 The value of percent of control at 10^−7 M was more than 60% or the value of IC50 was more than 200 nM.).

Which class does the source give for `Cc1cccc(C(C)C)c1NC(=O)NC[C@H]1CC[C@@H](Nc2nccc(N(C)C)n2)CC1` [compound 2425] here?
Its class is 1 (Class 1: The value of percent of control at 10^−7 M was less than 40% or the value of IC50 was less than 50 nM.).

`CC(C)c1ccccc1NC(=O)NC[C@H]1CC[C@@H](Nc2nccc(N(C)C)n2)CC1` [compound 2426] was tested. Which class did it give?
Its class is 3 (Class 3 The value of percent of control at 10^−7 M was more than 60% or the value of IC50 was more than 200 nM.).

With `Cc1c(NC(=O)NC[C@H]2CC[C@@H](Nc3nccc(N(C)C)n3)CC2)cccc1[N+](=O)[O-]` [compound 2427, N-[(cis-4-{[4-(dimethylamino)pyrimidin-2-yl]amino}cyclohexyl)methyl]-N′-(2-methyl-3-nitrophenyl)urea] as the compound, how does the class read?
The class was 1 (Class 1: The value of percent of control at 10^−7 M was less than 40% or the value of IC50 was less than 50 nM.).

`CCCc1ccccc1NC(=O)NC[C@H]1CC[C@@H](Nc2nccc(N(C)C)n2)CC1` [compound 2428, N-[(cis-4-{[4-(dimethylamino)pyrimidin-2-yl]amino}cyclohexyl)methyl]-N′-(2-propylphenyl)urea] was tested. Which class did it give?
Its class is 2 (Class 2: The value of percent of control at 10^−7 M was from 40% to 60% or the value of IC′50 was from 50 nM to 200 nM.).

How did the class turn out when `Cc1cccc(C(C)(C)C)c1NC(=O)NC[C@H]1CC[C@@H](Nc2nccc(N(C)C)n2)CC1` [compound 2429, N-(2-tert-butyl-6-methylphenyl)-N′-[(cis-4-{[4-(dimethylamino)pyrimidin-2-yl]amino}cyclohexyl)methyl]urea] was run?
The class was 1 (Class 1: The value of percent of control at 10^−7 M was less than 40% or the value of IC50 was less than 50 nM.).

With `CN(C)c1ccnc(N[C@H]2CC[C@@H](CNC(=O)Nc3ccccc3C(C)(C)C)CC2)n1` [compound 2430, N-(2-tert-butylphenyl)-N′-[(cis-4-{[4-(dimethylamino)pyrimidin-2-yl]amino}cyclohexyl)methyl]urea] as the compound, how does the class read?
The class was 1 (Class 1: The value of percent of control at 10^−7 M was less than 40% or the value of IC50 was less than 50 nM.).

Which class does the source give for `Cc1c(Cl)cccc1NC(=O)NC[C@H]1CC[C@@H](Nc2nccc(N(C)C)n2)CC1` [compound 2431, N-(3-chloro-2-methylphenyl)-N′-[(cis-4-{[4-(dimethylamino)pyrimidin-2-yl]amino}cyclohexyl)methyl]urea] here?
Its class is 1 (Class 1: The value of percent of control at 10^−7 M was less than 40% or the value of IC50 was less than 50 nM.).

How did the class turn out when `CN(C)c1ccnc(N[C@H]2CC[C@@H](CNC(=O)Nc3c(F)cc(Br)cc3F)CC2)n1` [compound 2432] was run?
Its class is 1 (Class 1: The value of percent of control at 10^−7 M was less than 40% or the value of IC50 was less than 50 nM.).

Which class does the source give for `CN(C)c1ccnc(N[C@H]2CC[C@@H](CNC(=O)Nc3ccc(Cl)cc3C(F)(F)F)CC2)n1` [compound 2433] here?
The class was 2 (Class 2: The value of percent of control at 10^−7 M was from 40% to 60% or the value of IC′50 was from 50 nM to 200 nM.).

Which class does the source give for `CN(C)c1ccnc(N[C@H]2CC[C@@H](CNC(=O)Nc3ccc(C#N)cc3)CC2)n1` [compound 2434] here?
The class was 3 (Class 3 The value of percent of control at 10^−7 M was more than 60% or the value of IC50 was more than 200 nM.).

Which class does the source give for `CN(C)c1ccnc(N[C@H]2CC[C@@H](CNC(=O)NC(c3ccccc3)c3ccccc3)CC2)n1` [compound 2435, N-[(cis-4-{[4-(dimethylamino)pyrimidin-2-yl]amino}cyclohexyl)methyl]-N′-(diphenylmethyl)urea] here?
The class was 1 (Class 1: The value of percent of control at 10^−7 M was less than 40% or the value of IC50 was less than 50 nM.).

Which class does the source give for `Cc1cc(Br)cc(C)c1NC(=O)NC[C@H]1CC[C@@H](Nc2nccc(N(C)C)n2)CC1` [compound 2436, N-(4-bromo-2,6-dimethylphenyl)-N′-[(cis-4-{[4-(dimethylamino)pyrimidin-2-yl]amino}cyclohexyl)methyl]urea] here?
Its class is 1 (Class 1: The value of percent of control at 10^−7 M was less than 40% or the value of IC50 was less than 50 nM.).

How did the class turn out when `Cc1noc(-c2ccccc2)c1NC(=O)NC[C@H]1CC[C@@H](Nc2nccc(N(C)C)n2)CC1` [compound 2437] was run?
The class was 1 (Class 1: The value of percent of control at 10^−7 M was less than 40% or the value of IC50 was less than 50 nM.).

For `Cc1cc(NC(=O)NC[C@H]2CC[C@@H](Nc3nccc(N(C)C)n3)CC2)c(C(F)(F)F)o1` [compound 2438], which class is on record?
The class was 3 (Class 3 The value of percent of control at 10^−7 M was more than 60% or the value of IC50 was more than 200 nM.).

With `CN(C)c1ccnc(N[C@H]2CC[C@@H](CNC(=O)Nc3cc(Cl)cc(Cl)c3)CC2)n1` [compound 2439] as the compound, how does the class read?
The class was 2 (Class 2: The value of percent of control at 10^−7 M was from 40% to 60% or the value of IC′50 was from 50 nM to 200 nM.).

With `CN(C)c1ccnc(N[C@H]2CC[C@@H](CNC(=O)Nc3cccc(Cl)c3Cl)CC2)n1` [compound 2440] as the compound, how does the class read?
The class was 1 (Class 1: The value of percent of control at 10^−7 M was less than 40% or the value of IC50 was less than 50 nM.).

How did the class turn out when `Cc1ccc(NC(=O)NC[C@H]2CC[C@@H](Nc3nccc(N(C)C)n3)CC2)cc1` [compound 2441] was run?
Its class is 3 (Class 3 The value of percent of control at 10^−7 M was more than 60% or the value of IC50 was more than 200 nM.).

How did the class turn out when `CC(C)c1cccc(C(C)C)c1NC(=O)NC[C@H]1CC[C@@H](Nc2nccc(N(C)C)n2)CC1` [compound 2442] was run?
Its class is 1 (Class 1: The value of percent of control at 10^−7 M was less than 40% or the value of IC50 was less than 50 nM.).

With `Cc1ccc([N+](=O)[O-])c(NC(=O)NC[C@H]2CC[C@@H](Nc3nccc(N(C)C)n3)CC2)c1C` [compound 2443] as the compound, how does the class read?
The class was 1 (Class 1: The value of percent of control at 10^−7 M was less than 40% or the value of IC50 was less than 50 nM.).

`CN(C)c1ccnc(N[C@H]2CC[C@@H](CNC(=O)Nc3c(Br)cc(F)cc3Br)CC2)n1` [compound 2444, N-(2,6-dibromo-4-fluorophenyl)-N′-[(cis-4-{[4-(dimethylamino)pyrimidin-2-yl]amino}cyclohexyl)methyl]urea] was tested. Which class did it give?
Its class is 1 (Class 1: The value of percent of control at 10^−7 M was less than 40% or the value of IC50 was less than 50 nM.).

How did the class turn out when `CN(C)c1ccnc(N[C@H]2CC[C@@H](CNC(=O)Nc3c(Cl)cccc3Cl)CC2)n1` [compound 2445] was run?
The class was 1 (Class 1: The value of percent of control at 10^−7 M was less than 40% or the value of IC50 was less than 50 nM.).

Which class does the source give for `COc1ccc(C)cc1NC(=O)NC[C@H]1CC[C@@H](Nc2nccc(N(C)C)n2)CC1` [compound 2446] here?
The class was 2 (Class 2: The value of percent of control at 10^−7 M was from 40% to 60% or the value of IC′50 was from 50 nM to 200 nM.).
